From ChEMBL document CHEMBL3621195, “Analogues of the marine alkaloids oroidin, clathrodin, and hymenidin induce apoptosis in human HepG2 and THP-1 cancer cells” (Medchemcomm, 2015)

Tests used:
[1] = system: HepG2; assay: Induction of apoptosis in human HepG2 cells at 50 uM incubated for 24 hrs by Annexin V-FITC and propidium iodide staining based microcapillary flow cytometry; format: functional
[2] = system: HepG2; assay: Induction of apoptosis in human HepG2 cells incubated for 24 hrs by Annexin V-FITC and propidium iodide staining based microcapillary flow cytometry; format: functional, cell-based; settings: HepG2, 24 h
[3] = system: THP-1; assay: Induction of apoptosis in human THP1 cells incubated for 24 hrs by Annexin V-FITC and propidium iodide staining based microcapillary flow cytometry; format: functional, cell-based; settings: THP-1, 24 h
[4] = system: THP-1; assay: Induction of apoptosis in human THP1 cells at 50 uM incubated for 24 hrs by Annexin V-FITC and propidium iodide staining based microcapillary flow cytometry; format: functional
[5] = system: THP-1; assay: Induction of cell cycle arrest in human THP1 cells assessed accumulation at subG1 phase at 25 uM incubated for 24 hrs by propidium iodide staining based microcapillary flow cytometry (reference value: 2 +/- 1%); format: functional
[6] = system: THP-1; assay: Induction of cell cycle arrest in human THP1 cells assessed accumulation at subG1 phase at 25 uM incubated for 48 hrs by propidium iodide staining based microcapillary flow cytometry (reference value: 2 +/- 1%); format: functional

In the case of Cc1c(NC(=O)c2cc3ccccc3o2)cccc1-n1cnnn1, the Activity [1] is reported as 45%.
Nc1nc2c(s1)C[C@@H](NC(=O)c1cc3ccccc3[nH]1)CC2 gave an Activity [1] of 27%.
With Cl.Cl.Nc1nc2c(s1)C[C@@H](NC(=O)[C@@H]1CCCN1)CC2 the Activity [1] was 22%.
Cn1cccc1C(=O)N[C@H]1CCc2nc(N)sc2C1 was tested, and the Activity [1] was 20%.
Nc1nc2c(s1)C[C@@H](NC(=O)c1ccco1)CC2 showed an Activity [1] of 29%.
Work on Nc1nc2c(s1)C[C@@H](NCc1ccc[nH]1)CC2 yielded an Activity [1] of 30%.
Nc1nc2c(s1)CC(CNC(=O)c1ccc[nH]1)CC2 (stereo not given) was tested, and the Activity [1] was 20%.
Work on Nc1nc2c(s1)CC(CNC(=O)c1cc(Br)c(Br)[nH]1)CC2 (stereo not given) yielded an Activity [1] of 23%.
Nc1nc2c(s1)CC(CNC(=O)c1cc3ccccc3[nH]1)CC2 (stereo not given) gave an Activity [1] of 32%.
CC(C)(C)OC(=O)N1CCC[C@H]1C(=O)NCC1CCc2nc(N)sc2C1 (stereo not given in full) gave an Activity [1] of 23%.
With Cl.Cl.Nc1nc2c(s1)CC(CNC(=O)[C@@H]1CCCN1)CC2 (stereo not given in full) the Activity [1] was 27%.
With Nc1nc2c(s1)C[C@@H](NC(=O)c1ccc[nH]1)CC2 the Activity [1] was 23%.
Work on Nc1nc2c(s1)C[C@@H](NC(=O)c1cc(Br)c[nH]1)CC2 yielded an Activity [1] of 28%.
In the case of Nc1nc2c(s1)C[C@@H](NC(=O)c1cc(Br)c(Br)[nH]1)CC2, the Activity [1] is reported as 35%.
For CNc1nc(-c2cccc(NC(=O)c3cc4ccccc4[nH]3)c2)cn1C(=O)OC(C)(C)C, the Activity [1] was 90%.
Compound CC(C)(C)OC(=O)n1cc(-c2ccc(NC(=O)c3ccc[nH]3)cc2)nc1N has an Activity [1] of 24%.
Cl.Nc1nc(-c2cccc(NC(=O)c3ccc[nH]3)c2)c[nH]1 showed an Activity [1] of 13%.
Cl.Nc1nc(-c2ccc(NC(=O)c3ccc[nH]3)cc2)c[nH]1 showed an Activity [1] of 20%.
CC(C)(C)OC(=O)n1cc(-c2cccc(NC(=O)c3cc[nH]c3)c2)nc1N showed an Activity [1] of 19%.
In the case of CC(C)(C)OC(=O)n1cc(-c2cccc(NC(=O)c3cc4ccccc4[nH]3)c2)nc1N, the Activity [1] is reported as 75%.
For CC(C)(C)OC(=O)n1cc(-c2ccc(NC(=O)c3cc4ccccc4[nH]3)cc2)nc1N, the Activity [1] was 90%.
Cl.Nc1nc(-c2cccc(NC(=O)c3cc4ccccc4[nH]3)c2)c[nH]1 gave an Activity [1] of 77%.
CC(C)(C)OC(=O)n1cc(-c2cccc(NC(=O)c3c[nH]c4ccccc34)c2)nc1N was tested, and the Activity [1] was 62%.
Work on Cl.Nc1nc(-c2cccc(NC(=O)c3c[nH]c4ccccc34)c2)c[nH]1 yielded an Activity [1] of 55%.
For CNc1nc(-c2cccc(NC(=O)c3ccco3)c2)cn1C(=O)OC(C)(C)C, the Activity [1] was 44%.
CC(C)(C)OC(=O)n1cc(-c2cccc(NC(=O)c3ccc[nH]3)c2)nc1N gave an Activity [1] of 21%.
In the case of Cl.Nc1nc(-c2cccc(NC(=O)c3cc4cc(OCc5ccccc5)ccc4[nH]3)c2)c[nH]1, the Activity [1] is reported as 50%.
Nc1nc(/C=C/CNC(=O)c2cc3ccccc3[nH]2)c[nH]1 gave an Activity [1] of 36%.
Nc1nc(/C=C/CNC(=O)c2cc3cc(F)ccc3[nH]2)c[nH]1 was tested, and the Activity [1] was 38%.
Compound CC(C)(C)OC(=O)n1cc(-c2cccc(NC(=O)c3cc4cc(OC(F)(F)F)ccc4[nH]3)c2)nc1N has an Activity [1] of 43%.
Work on CC(C)(C)OC(=O)n1cc(-c2cccc(NC(=O)c3cc4cc(O)ccc4[nH]3)c2)nc1N yielded an Activity [1] of 56%.
Cl.Nc1nc(-c2cccc(NC(=O)c3cc4cc(O)ccc4[nH]3)c2)c[nH]1 showed an Activity [1] of 19%.
For Cl.Nc1nc(-c2cccc(NC(=O)c3cc4cc(F)ccc4[nH]3)c2)c[nH]1, the Activity [1] was 98%, the EC50 [2] was 13 µM and the EC50 [3] was 23 µM. The Activity [4] was 87%, the Activity [5] was 36% and the Activity [6] was 41%.
COc1ccc2[nH]c(C(=O)Nc3cccc(-c4c[nH]c(N)n4)c3)cc2c1.Cl gave an Activity [1] of 78%, an EC50 [2] of 18 µM and an EC50 [3] of 20 µM. For the same compound, the Activity [4] was 87%, the Activity [5] was 45% and the Activity [6] was 60%.
For Cl.Nc1nc(-c2cccc(NC(=O)c3cc4sccc4[nH]3)c2)c[nH]1, the Activity [1] was 96%, the EC50 [2] was 42 µM and the EC50 [3] was > 50 µM. The Activity [4] was 12%.
Work on O=C(Nc1cccc(-c2ccn[nH]2)c1)c1cc2ccccc2[nH]1 yielded an Activity [1] of 68%.
In the case of Nc1nc(-c2cccc(NC(=O)c3ccc[nH]3)c2)cn1Cc1ccccc1, the Activity [1] is reported as 54%.
CC(C)(C)OC(=O)n1cc(-c2ccc(NCc3c[nH]cn3)cc2)nc1N showed an Activity [1] of 39%.
CNC1=NC(c2cccc(NC(=O)c3ccco3)c2)CN1.Cl (stereo not given) was tested, and the Activity [1] was 28%.
In the case of Nc1nc(-c2cccc(NCc3ccc[nH]3)c2)cn1Cc1ccccc1, the Activity [1] is reported as 86%.
For CC(C)(C)OC(=O)n1cc(-c2ccc(NCc3ccc[nH]3)cc2)nc1N, the Activity [1] was 34%.
CC(C)(C)OC(=O)N1CCC[C@H]1C(=O)Nc1ccc(-c2cn(C(=O)OC(C)(C)C)c(N)n2)cc1 showed an Activity [1] of 20%.
Compound CC(C)(C)OC(=O)N1CCC[C@@H]1C(=O)Nc1ccc(-c2cn(C(=O)OC(C)(C)C)c(N)n2)cc1 has an Activity [1] of 23%.
COCc1c(C(=O)Nc2cccc(-c3ccn[nH]3)c2)sc2cccc(F)c12 was tested, and the Activity [1] was 65%.
In the case of O=C(Nc1cccc(-c2ccn[nH]2)c1)c1ccc2[nH]nnc2c1, the Activity [1] is reported as 20%.
In the case of Nc1nc(/C=C/CNC(=O)c2cc(Br)c[nH]2)c[nH]1, the Activity [1] is reported as 25%.
For Nc1nc(CCCNC(=O)c2ccc[nH]2)c[nH]1, the Activity [1] was 25%.
Nc1nc(/C=C/CNC(=O)c2ccccc2)c[nH]1 gave an Activity [1] of 33%.
Work on COc1ccc2[nH]c(C(=O)Nc3cccc(-c4cn(C(=O)OC(C)(C)C)c(N)n4)c3)cc2c1 yielded an Activity [1] of 87%.
CC(C)(C)OC(=O)n1cc(-c2cccc(NC(=O)c3cc4cc(F)ccc4[nH]3)c2)nc1N was tested, and the Activity [1] was 89%.
CC(C)(C)OC(=O)n1cc(-c2cccc(NC(=O)c3cc4sccc4[nH]3)c2)nc1N was tested, and the Activity [1] was 86%.
In the case of CNC1=NC(c2cccc(NC(=O)c3ccco3)c2)CN1C(=O)OC(C)(C)C (stereo not given), the Activity [1] is reported as 32%.
CC(C)(C)OC(=O)n1cc(-c2cccc(NC(=O)c3cc4cc(OCc5ccccc5)ccc4[nH]3)c2)nc1N was tested, and the Activity [1] was 81%.
For CC(C)(C)OC(=O)n1cc(-c2cccc(NC(=O)c3cc4cc(Cl)ccc4[nH]3)c2)nc1N, the Activity [1] was 91%.
For CNC1=NC(c2cccc(NC(=O)c3ccc[nH]3)c2)CN1C(=O)OC(C)(C)C (stereo not given), the Activity [1] was 31%.
In the case of CNC1=NC(c2cccc(NC(=O)c3cc4ccccc4[nH]3)c2)CN1C(=O)OC(C)(C)C (stereo not given), the Activity [1] is reported as 74%.
Work on Cl.Nc1nc(-c2cccc(NC(=O)c3cc[nH]c3)c2)c[nH]1 yielded an Activity [1] of 16%.
With CNC1=NC(c2cccc(NC(=O)c3ccc[nH]3)c2)CN1.Cl (stereo not given) the Activity [1] was 28%.
With CNC1=NC(c2cccc(NC(=O)c3cc4ccccc4[nH]3)c2)CN1.Cl (stereo not given) the Activity [1] was 27%.
Work on Cl.Cl.Nc1nc(CN2CCN(C(=O)c3ccc[nH]3)CC2)c[nH]1 yielded an Activity [1] of 27%.
Compound Cl.Cl.Nc1nc(CN2CCN(Cc3ccc[nH]3)CC2)c[nH]1 has an Activity [1] of 34%.
Cl.Cl.Cl.Nc1nc(CN2CCN(C(=O)[C@@H]3CCCN3)CC2)c[nH]1 showed an Activity [1] of 28%.
For Cl.Cl.Nc1nc(CN2CCN(C(=O)c3cc4ccccc4[nH]3)CC2)c[nH]1, the Activity [1] was 32%.
Cl.Cl.Nc1nc(CN2CCN(C(=O)c3c[nH]c4ccccc34)CC2)c[nH]1 showed an Activity [1] of 30%.
Cl.Cl.Nc1nc(CN2CCN(Cc3ccccc3)CC2)c[nH]1 showed an Activity [1] of 32%.
Cl.Cl.Nc1nc(CN2CCN(C(=O)c3cccnc3)CC2)c[nH]1 was tested, and the Activity [1] was 28%.
O=C(c1ccc[nH]1)N1CCN(Cc2c[nH]cn2)CC1 was tested, and the Activity [1] was 23%.
Nc1ncc(CC(=O)N2CCN(C(=O)c3ccc[nH]3)CC2)s1 was tested, and the Activity [1] was 23%.
In the case of Nc1ncc(C(=O)N2CCN(C(=O)c3ccc[nH]3)CC2)s1, the Activity [1] is reported as 20%.
With CC(C)(C)OC(=O)n1cc(-c2cccc(NCc3ccc[nH]3)c2)nc1N the Activity [1] was 40%.
Work on O=C1CCc2cc(C(=O)Nc3cccc(-c4ccn[nH]4)c3)ccc2N1 yielded an Activity [1] of 26%.
Cc1nc(-c2cccc(NC(=O)c3cc4ccccc4[nH]3)c2)cs1 gave an Activity [1] of 57%.
Cl.Cl.Nc1nc(-c2ccc(NC(=O)[C@@H]3CCCN3)cc2)c[nH]1 was tested, and the Activity [1] was 22%.
For O=C(Nc1cccc(-c2ccn[nH]2)c1)c1cc2ccccc2o1, the Activity [1] was 40%.
With O=C(Nc1cccc(-c2ccn[nH]2)c1)c1ccc2[nH]cnc2c1 the Activity [1] was 47%.
In the case of Cc1cc(C)n2nc(C(=O)Nc3cccc(-c4ccn[nH]4)c3)nc2n1, the Activity [1] is reported as 31%.
O=C(Nc1cccc(-c2ccn[nH]2)c1)c1cc2ccccc2c(=O)[nH]1 showed an Activity [1] of 91%.
In the case of Cc1nc(-c2cccc(NC(=O)c3cn4ccccc4n3)c2)cs1, the Activity [1] is reported as 25%.
For CCn1cnnc1-c1cccc(NC(=O)c2cc3ccc(C)cc3[nH]2)c1, the Activity [1] was 55%.
Compound O=C(Nc1cccc(-n2cnnn2)c1)c1cc2ccccc2[nH]1 has an Activity [1] of 56%.
In the case of O=C(Nc1cccc(-n2cnnn2)c1)c1cn2ccccc2n1, the Activity [1] is reported as 27%.
For O=C(NC1CC1)c1cccc(NC(=O)c2cc3c(F)cccc3[nH]2)c1, the Activity [1] was 51%.
Compound Cc1cc(=O)[nH]c(-c2cccc(NC(=O)c3ccc(N(C)C)cc3)c2)n1 has an Activity [1] of 37%.
Cc1ccn2cc(C(=O)Nc3cccc(-c4nnco4)c3)nc2c1 showed an Activity [1] of 6%.
Compound CCn1nnnc1-c1cccc(NC(=O)c2cc3ccccc3[nH]2)c1 has an Activity [1] of 28%.
Work on O=C(Nc1cccc(-n2cnnn2)c1)c1cc2c(F)cccc2s1 yielded an Activity [1] of 39%.
Work on Cc1ccc2cc(C(=O)Nc3cccc(C(N)=O)c3)[nH]c2c1 yielded an Activity [1] of 66%.
For O=C(Nc1cccc(N2CCCC2=O)c1)c1cc2ccccc2[nH]1, the Activity [1] was 43%.
With CC(C)(C)OC(=O)N1CCCC1C(=O)Nc1cccc(-c2cn(C(=O)OC(C)(C)C)c(N)n2)c1 (single isomer, unassigned) the Activity [1] was 18%.
Cl.Cl.Nc1nc(-c2cccc(NC(=O)C3CCCN3)c2)c[nH]1 (single isomer, unassigned) showed an Activity [1] of 16%.
Compound Nc1ncc(/C=C/CNC(=O)c2ccc[nH]2)[nH]1 [CLATHRODIN] has an Activity [1] of 27%.
Work on Nc1ncc(/C=C/CNC(=O)c2cc(Br)c(Br)[nH]2)[nH]1 [OROIDIN] yielded an Activity [1] of 35%.
